The NIST ThermoML archive (doi:10.1016/j.jct.2018.01.023)
± gives the expanded uncertainty stated by the source.

Conditions: Crystal; for mass density: 101.33 kPa, X-ray diffraction; for Normal melting temperature: DTA

Structure (SMILES)	mass density (293 K) [kg/m3]	Normal melting temperature [°C]	mass density (473 K) [kg/m3]	mass density (573 K) [kg/m3]	mass density (673 K) [kg/m3]	mass density (773 K) [kg/m3]	mass density (873 K) [kg/m3]	mass density (973 K) [kg/m3]
[F][Ni][F] [nickel difluoride]	4808 ± 24	1356 ± 10						
[F-].[K+] [potassium fluoride]	2530 ± 12	856 ± 10						
[F-].[F-].[F-].[K+].[Ni+2] [nickel potassium fluoride (KNiF3)]		1120 ± 20						
[F-].[Li+] [lithium fluoride]	2634 ± 2	845 ± 10	2576 ± 12	2554 ± 11	2522 ± 12	2493 ± 13	2455 ± 12	2432 ± 9
